Test: Hygroscopicity study as per British Pharmacopoeia method
Format: physicochemical
Description: Darunavir Hydrate From C was subjected to hygroscopicity study and the test was performed as per the method given in British Pharmacopoeia.
A weight change of 0.0003 g was observed which correspond to 0.06% weight change. As per the test a sample is of non-hygroscopic nature if the weight change observed is less than 0.2%.

CC(C)CN(C[C@@H](O)[C@H](Cc1ccccc1)NC(=O)O[C@H]1CO[C@H]2OCC[C@H]21)S(=O)(=O)c1ccc(N)cc1 [darunavir hydrate Form C, (3R,3aS,6aR)-hexahydrofuro[2,3-b]furan-3-yl(1S,2R)-3-[[(4-aminophenyl)sulfonyl](isobutyl)amino]-1-benzyl-2-hydroxypropylcarbamate]
hygroscopic nature (non-hygroscopic if weight change less than 0.2%) (25° C. and 85% RH, 24 hours): non-hygroscopic | weight change (57.6456 g exposed at 25° C. and 85% RH for 24 hours): 0.0003 g | weight change (exposed at 25° C. and 85% RH for 24 hours): 0.06%

— US20150141383A1, “Darunavir Polymorph and Process for Preparation Thereof” (Cipla Limited, priority 2010, published 2015)
